The values below are quoted from earlier work in patent US20240252571A1, “Hemp Essential Oil” (priority 2023, published 2024).

“Also recorded” adds a separate entry of the source. Like-named read-outs stand apart in the source and are kept apart here. Where a SMILES comes first, the peptide text is derived from it. Where only a bound is given, the exact number is not on record here.

The test system of data set [1] is SZ95 sebocytes.
For data set [2], the system named is SZ95 sebocytes. The note with it: for effect on the lipid synthesis-inhibitory (lipostatic) action of CBD: coapplication with CBD.
Data set [3] concerns mild AD. Particulars: pediatric population.
In data set [4] the test system is Methicillin-resistant Staphylococcus aureus (MRSA).
For data set [5], the system named is Enterococcus faecalis. The note with it: E. faecalis.
The test system of data set [6] is Methicillin-resistant Staphylococcus epidermidis (MRSE).
The subject of data set [7] is Normal Human Epidermal Keratinocytes (NHEK). The note with it: HMOX1 most upregulated.
For data set [8] the following is noted: in vitro diffusion, human tissue.
For data set [9] the following is noted: CBD 1-10% gel, monoarthritic rat; plasma concentration linear with dose.
The subject of data set [10] is TNFA, IL1B and IL6 expression in human sebocytes.
The test system of data set [11] is ionic currents of SZ95 sebocytes. Particulars: CBD 10 μM, voltage ramp, -90 and +90 mV.
The test system of data set [12] is human sebaceous glands. Particulars: ex vivo hSOC.
Data set [13] relates to Listeria monocytogenes. The note with it: L. monocytogenes.
For data set [14], the system named is mice epidermis. Particulars: topical application.
The conditions of data set [15]: ethosomal carriers, murine model.
The subject of data set [16] is human keratinocytes.
For data set [17], the system named is Human dermal fibroblasts (HDFs). Particulars: compared with vitamin C.
Data set [18] relates to allergic contact dermatitis model. Particulars: experimental allergic contact dermatitis model.
Data set [19] deals with intracellular calcium concentration of SZ95 sebocytes. The note with it: for effect on the CBD-induced increase of [Ca2+]IC: with CBD.
Data set [20] deals with human skin equivalents. The note with it: compared with CBD.
Data set [21] has as its system Interleukin-1β, -6, -8, tumor necrosis factor α release. The note with it: inducers UVA, UVB, chemical, C. acnes.
Data set [22] concerns itching. Particulars: murine models.
The mark [23] stands for this setting: lower CBD concentrations, 1-100 nM.

Consider `CCCCC/C=C\C/C=C\C/C=C\C/C=C\CCCC(=O)NCCO` [AEA, N-arachidonoyl ethanolamide], for which, in data set [1] (higher levels), the “apoptosis of human sebocytes” value is given as “induces apoptosis”. The “lipid production in human sebocytes” value in data set [2] (low concentrations) is “stimulate lipid production”.
Consider `Cc1c(C(=O)NN2CCCCC2)nn(-c2ccc(Cl)cc2Cl)c1-c1ccc(I)cc1` [AM251], for which, in [2], the “effect on the lipid synthesis-inhibitory (lipostatic) action of CBD” value (from here on “effect on the lipid synthesis-inhibitory”) is “neither CB1- nor CB2-specific antagonists (AM251 and AM630) were able to antagonize”.
With `COc1ccc(C(=O)c2c(C)n(CCN3CCOCC3)c3cc(I)ccc23)cc1` [AM630], the “effect on the lipid synthesis-inhibitory” value in data set [2] was “neither CB1- nor CB2-specific antagonists (AM251 and AM630) were able to antagonize”.
Regarding `O=C(CCCCCCCC(=O)NCCO)NCCO` [Adelmidrol], the “efficacy in mild AD” value in data set [3] is recorded as “effective in treating mild AD”.
On to `CC[C@H](C)[C@H](N)C1=N[C@H](C(=O)N[C@@H](CC(C)C)C(=O)N[C@H](CCC(=O)O)C(=O)N[C@H](C(=O)N[C@H]2CCCCNC(=O)[C@H](CC(N)=O)NC(=O)[C@@H](CC(=O)O)NC(=O)[C@H](Cc3cnc[nH]3)NC(=O)[C@@H](Cc3ccccc3)NC(=O)[C@H]([C@@H](C)CC)NC(=O)[C@@H](CCCN)NC2=O)[C@@H](C)CC)CS1` [BAC, Bacitracin] (HELM PEPTIDE1{[CC[C@H](C)[C@H](N)C1=N[C@H](C(=O)[*:2])CS1].L.[dE].I.K.[NCCC[C@@H](N[*:1])C(=O)[*:2]].I.[dF].H.[dD].N}$PEPTIDE1,PEPTIDE1,5:R3-11:R2$$$V2.0), for which the “reduction of MIC of BAC versus BAC alone” value in data set [4] (MRSA, combined with ½ MIC of C3D) is on record as not below 64 fold; in [5] (combined with ½ MIC of C3D), not below 64 fold; in data set [6] (combined with ½ MIC of C3D) it was not below 64 fold.
For `C=C(C)[C@@H]1CCC(C)=C[C@H]1c1c(O)cc(CCCCC)cc1O` [CBD, cannabidiol], the “activity against a variety of MRSA strains” value in [4] is “potent activity”. Besides, the “Minimum Inhibitory Concentration (MIC)” value in data set [4] (MRSA) was 4 µg/mL; in data set [5], 8 µg/mL; in [13], 4 µg/mL; in [6] it was 8 µg/mL. Also, in [7], the “expression of NRF2 target genes” value is “induced the expression of several NRF2 target genes”. Besides, the permeation result in data set [8] is on record as “demonstrated CBD's permeation potential”. Further, in [9], the “absorption after topical application” value is “well-absorbed”. For the same compound, the IL1B expression result in data set [10] (LPS-induced) was “normalize”. The IL6 expression entry in data set [10] (LPS-induced) is recorded as “normalize”. Besides, the entries for the “elevation of TNFA expression” value in [10] (induced by TLR2 activator lipoteichoic acid (LTA)), in data set [10] (induced by TLR4 activator LPS) and in [10] (induced by pro-acne LA-T combination) were “completely prevented”, “completely prevented” and “prevent”, respectively. In data set [1] (10 μM CBD, elongated application, 6-day treatments), the cell number entry is recorded as “decreased; also recorded: reduced”. In addition, in data set [1] (50 μM CBD), the cytotoxicity entry is reported as “evoked apoptosis-driven cytotoxicity”. Besides, the “cellular viability, apoptosis, necrosis” value in [1] (CBD 1-10 μM) is listed as “did not decrease cellular viability or induce either apoptosis or necrosis”. Also, the “proliferation of SZ95 sebocytes” value in data set [1] (CBD 1-10 μM) is on record as “significantly reduce”. For the same compound, the membrane currents result in data set [11] is “induced a mostly outwardly rectifying current and a positive shift in the reversal potential”. Moreover, the “basal lipogenesis in situ” value in data set [12] is recorded as “decreased basal lipogenesis”. In addition, in data set [12], the “expression of the proliferation marker MKI67” value was “markedly suppressed”. Also, in [12], the “lipogenic action of AEA in situ” value is given as “completely prevented”. Also, the “lipid synthesis induced by arachidonic acid (AA)” value is recorded as “effectively inhibited” in data set [2] and “inhibit extraneous lipid synthesis” in data set [2] (listed as CDI). The “lipid synthesis induced by the combination of linoleic acid and testosterone (LA-T)” value in [2] was “effectively inhibited”; in data set [2] (listed as CDI), “inhibit extraneous lipid synthesis”. For the same compound, the lipogenesis result in data set [2] (10 μM CBD, 6-day treatments) is listed as “decreased”; in data set [2] (50 μM CBD), “decreased lipogenesis”. In addition, the “basal neutral (sebaceous) lipid synthesis” value in data set [2] (CBD 1-10 μM, 24-hour treatment) is listed as “neither semiquantitative Oil Red O nor quantitative Nile Red staining indicated changes; also recorded: no changes”. In addition, the “inhibition of the lipogenic action of AEA” value in data set [2] (CBD 1-10 μM, dose-dependent) is on record as “markedly inhibited; also recorded: quell the lipogenic actions in a dose-dependent manner”. For the same compound, the “AA-enhanced "pathological" lipogenesis (lipidome)” value in [2] (acne-like conditions with AA) is recorded as “almost completely normalized”. Further, the AA-induced lipid synthesis entry in [2] (setting [23]) was “did not influence”. Also, in data set [2] (setting [23]), the basal lipid synthesis result is on record as “did not influence”. For the same compound, the “levels of HMOX1 and expression of keratins 16 and 17” value in data set [14] was “increased”. For the same compound, the transdermal delivery result in [15] was “successful transdermal delivery”. In addition, in data set [16], the “peroxide-induced reduction of polyunsaturated fatty acids in the cell membrane” value is listed as “protective effect”. Besides, the oxidative stress response result in data set [16] (UVB irradiation and hydrogen peroxide) is “balance the oxidative stress response”. Further, the “reactive oxygen species levels” value in data set [17] is listed as “reduce reactive oxygen species levels in HDFs better than vitamin C”. For the same compound, the anti-inflammatory properties entry in [18] was “exhibit anti-inflammatory properties”. Moreover, the “intracellular calcium concentration ([Ca2+]IC)” value in data set [19] was “significantly increased”.
As to `CCCCCc1cc(O)c(C/C=C(\C)CCC=C(C)C)c(O)c1` [CBG, cannabigerol], the “activity against a variety of MRSA strains” value in data set [4] is on record as “potent activity”. Further, the genes regulated entry in data set [20] was “regulates more genes than CBD”. The “reactive oxygen species levels” value in [17] is given as “reduce reactive oxygen species levels in HDFs better than vitamin C”. The pro-inflammatory cytokine release result in data set [21] is on record as “inhibits”.
`Cc1c(C(=O)Nc2cccc(C(F)(F)F)c2)cc(-c2ccccc2)n1CCCN1CCOCC1` [HC067047]: in [2] (TRPV4 antagonist alone), the basal lipid synthesis entry is on record as “did not affect basal lipid synthesis”. Also, the “effect on the lipid synthesis-inhibitory” value in data set [2] is “prevented”. The “effect on the CBD-induced increase of [Ca2+]IC” value in data set [19] was “antagonized”.
On to `CCCCCCCCCCCCCCCC(=O)NCCO` [PEA], for which the itching result in data set [22] is listed as “reduce itching”.
On to `CCCCCc1cc(O)c2c(c1)OC(C)(C)[C@@H]1CCC(C)=C[C@@H]21` [THC, tetrahydrocannabinol], for which the itching result in [22] was “reduce itching”.
Regarding `COc1cc(CNC(=O)CCCC/C=C/C(C)C)ccc1O` [capsaicin], the “lipostatic action by activation of TRPV1” value in data set [2] was “potent lipostatic actions”.
On to `N.N.N.N.N.N.N.N.N.N.N.N.N.N.[Cl-].[Cl-].[Cl-].[Cl-].[Cl-].[Cl-].[O-2].[O-2].[Ru+3].[Ru+3].[Ru+4]` [ruthenium red], for which the “effect on the CBD-induced increase of [Ca2+]IC” value in data set [19] is listed as “antagonized”.
